Laboratory results taken from US20090118253A1, “COMPOSITIONS AND METHODS FOR TREATING DYSFUNCTIONAL UTERINE BLEEDING” (REPROS THERAPEUTICS INC., priority 2007, published 2009).

Molecular target: T1, glucocorticoid receptor (rbGR) (Oryctolagus cuniculus, UniProt P59667)
T1 construct: cytosol containing PR or GR were prepared in TEGMD buffer; from tissue; host or cells: thymus of estradiol-primed immature rabbits (cytosol)
T1 sequence (P59667 1-772): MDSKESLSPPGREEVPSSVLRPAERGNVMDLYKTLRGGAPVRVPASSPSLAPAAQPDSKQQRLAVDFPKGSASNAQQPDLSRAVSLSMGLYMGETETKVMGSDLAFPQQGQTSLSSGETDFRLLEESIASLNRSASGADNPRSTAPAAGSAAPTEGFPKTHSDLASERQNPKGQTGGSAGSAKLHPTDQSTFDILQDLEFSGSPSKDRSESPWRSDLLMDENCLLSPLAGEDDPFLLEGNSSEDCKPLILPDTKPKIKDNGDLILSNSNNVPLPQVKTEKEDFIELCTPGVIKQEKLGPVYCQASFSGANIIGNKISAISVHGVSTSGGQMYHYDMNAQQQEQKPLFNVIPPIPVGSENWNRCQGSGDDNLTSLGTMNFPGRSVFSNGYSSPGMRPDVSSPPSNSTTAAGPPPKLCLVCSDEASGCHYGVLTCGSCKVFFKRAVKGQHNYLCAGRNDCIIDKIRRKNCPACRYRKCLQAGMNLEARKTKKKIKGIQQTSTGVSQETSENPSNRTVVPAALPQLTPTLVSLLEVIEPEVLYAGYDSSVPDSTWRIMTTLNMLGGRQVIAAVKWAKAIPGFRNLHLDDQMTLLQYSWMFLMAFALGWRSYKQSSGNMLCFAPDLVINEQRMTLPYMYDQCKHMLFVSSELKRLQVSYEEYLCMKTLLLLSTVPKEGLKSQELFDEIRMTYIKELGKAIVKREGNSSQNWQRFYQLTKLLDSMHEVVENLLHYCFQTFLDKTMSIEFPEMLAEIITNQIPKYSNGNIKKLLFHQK
Test: Glucocorticoid receptor binding / anti-glucocorticoid receptor activity
Set-up: species or system rabbit
Method: Certain antiprogestins were tested in receptor-binding assays for their ability to bind rabbit progesterone receptor (rbPR) and glucocorticoid receptor (rbGR). […] For PR binding, the cytosol was incubated with 6 nM 1,2-[^3H]progesterone (50.0 Ci/mmole) and competitors were added at concentrations from 2 to 100 nM. For binding to GR, the cytosol was incubated with 6 nM 6,7-[^3H]-dexamethasone (40 Ci/mmol) and test compounds were added at concentrations from 20 to 100 nM. After overnight incubation at 4 C, bound and unbound [^3H] steroids were separated by addition of dextran-coated charcoal and centrifugation at 2100×g for 15 min at 4 C. Supernatants containing the [3H]-steroid receptor complexes were decanted into vials containing 4 ml Optifluor (Packard Instrument Co.), vortexed, equilibrated in a liquid scintillation counter for 30 minutes and then counted for 2 minutes. […] The standards for the PR and GR assays were unlabeled progesterone and dexamethasone, respectively.

Compound: COCC(=O)[C@@]1(OC(C)=O)CC[C@H]2[C@@H]3CCC4=CC(=O)CCC4=C3[C@@H](c3ccc(N(C)C)cc3)C[C@@]21C [CDB-4124, 21-methoxy-17α-acetoxy-11β-(4 N,N-dimethylaminophenyl)-19-norpregna-4,9-diene-3,20-dione]
- anti-glucocorticoid receptor activity / glucocorticoid receptor binding: minimal anti-glucocorticoid receptor activity
